According to PubChem BioAssay AID248 (DTP/NCI, 2004):
Several values for one entry are separate records, joined by “and”; a condition that tells them apart may be missing. Equal values may be shown once. Toxic doses and inconclusive results are not listed. Rule as the data show it: active = T/C of 150% or more; inactive = T/C below 125%.

System: L1210 leukemia ip in BDF1 mice, survival T/C
Test: NCI In Vivo Anticancer Drug Screen. Data for tumor model L1210 Leukemia (intraperitoneal) in B6D2F1 (BDF1) mice
Conditions: endpoint: mean survival time, higher = longer survival
In short: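 Read-out is survival time, reported as the treated-group measurement over the vehicle-control measurement.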

[1] = dose: 100.0 mg/kg/injection, schedule: Q01DX009 (ip), vehicle: Klucel (hydroxypropylcellulose) (HPC)
[2] = dose: 100.0 mg/kg/injection, schedule: Q04DX003 (ip), vehicle: Klucel (hydroxypropylcellulose) (HPC)
[3] = dose: 200.0 mg/kg/injection, schedule: Q01DX009 (ip), vehicle: Klucel (hydroxypropylcellulose) (HPC)
[4] = dose: 200.0 mg/kg/injection, schedule: Q04DX003 (ip), vehicle: Klucel (hydroxypropylcellulose) (HPC)
[5] = dose: 400.0 mg/kg/injection, schedule: Q01DX009 (ip), vehicle: Klucel (hydroxypropylcellulose) (HPC)
[6] = dose: 400.0 mg/kg/injection, schedule: Q04DX003 (ip), vehicle: Klucel (hydroxypropylcellulose) (HPC)
[7] = dose: 100.0 mg/kg/injection, schedule: Q01DX009 (ip), vehicle: saline
[8] = dose: 200.0 mg/kg/injection, schedule: Q01DX009 (ip), vehicle: saline
[9] = dose: 400.0 mg/kg/injection, schedule: Q01DX009 (ip), vehicle: saline
[10] = dose: 50.0 mg/kg/injection, schedule: Q01DX001 (ip), vehicle: saline
[11] = dose: 100.0 mg/kg/injection, schedule: Q01DX001 (ip), vehicle: saline
[12] = dose: 200.0 mg/kg/injection, schedule: Q01DX001 (ip), vehicle: saline
[13] = dose: 400.0 mg/kg/injection, schedule: Q01DX001 (ip), vehicle: saline
[14] = dose: 100.0 mg/kg/injection, schedule: Q01DX001 (ip), vehicle: saline with Tween-80
[15] = dose: 100.0 mg/kg/injection, schedule: Q04DX002 (ip), vehicle: saline with Tween-80
[16] = dose: 100.0 mg/kg/injection, schedule: Q04DX003 (ip), vehicle: saline
[17] = dose: 200.0 mg/kg/injection, schedule: Q01DX001 (ip), vehicle: saline with Tween-80
[18] = dose: 200.0 mg/kg/injection, schedule: Q04DX002 (ip), vehicle: saline with Tween-80
[19] = dose: 200.0 mg/kg/injection, schedule: Q04DX003 (ip), vehicle: saline
[20] = dose: 400.0 mg/kg/injection, schedule: Q04DX002 (ip), vehicle: saline with Tween-80
[21] = dose: 400.0 mg/kg/injection, schedule: Q04DX003 (ip), vehicle: saline
[22] = dose: 25.0 mg/kg/injection, schedule: Q04DX003 (ip), vehicle: Klucel (hydroxypropylcellulose) (HPC)
[23] = dose: 50.0 mg/kg/injection, schedule: Q04DX003 (ip), vehicle: Klucel (hydroxypropylcellulose) (HPC)
[24] = dose: 50.0 mg/kg/injection, schedule: Q04DX003 (ip), vehicle: saline with Tween-80
[25] = dose: 100.0 mg/kg/injection, schedule: Q04DX003 (ip), vehicle: saline with Tween-80

Measured: T/C

CC(C)=CCCBr
inactive: dose: 50.0 mg/kg/injection, schedule: Q01DX009 (sc), vehicle: olive oil, sesame oil, peanut oil 108 % of control | dose: 100.0 mg/kg/injection, schedule: Q01DX009 (sc), vehicle: olive oil, sesame oil, peanut oil 102 % of control | dose: 200.0 mg/kg/injection, schedule: Q01DX009 (sc), vehicle: olive oil, sesame oil, peanut oil 108 % of control

COC(=O)c1cc(C)c(Br)c(N)c1
inactive: [1] 101 % of control | [2] 100 % of control | [3] 101 % of control | [4] 92 % of control | [5] 98 % of control | [6] 95 % of control

O=C(COc1ccccc1)NCc1cccc(Cl)c1
inactive: dose: 100.0 mg/kg/injection, schedule: Q01DX009 (ip), vehicle: gum acacia 99 % of control | dose: 200.0 mg/kg/injection, schedule: Q01DX009 (ip), vehicle: gum acacia 92 % of control | dose: 400.0 mg/kg/injection, schedule: Q01DX009 (ip), vehicle: gum acacia 92 % of control

COc1ccc(Cl)cc1NS(=O)(=O)c1c(C)cc(C)cc1C
inactive: [7] 104 % of control | [8] 96 % of control | [9] 111 % of control

CC(C)C12NC(=O)NC(=O)N1CCS2 (stereo not drawn)
inactive: [10] 93 % of control | [11] 96 % of control | [12] 100 % of control | [13] 100 % of control

COc1ccccc1CN1CCCN(Cc2ccccc2OC)C1c1cc(Br)ccc1O
inactive: [10] 95 % of control | [11] 103 % of control | [12] 103 % of control | [13] 103 % of control

Cc1ccc(Cl)cc1NC(=O)Nc1ccccc1C(N)=O
inactive: [14] 98 % of control | dose: 100.0 mg/kg/injection, schedule: Q01DX009 (ip), vehicle: saline with Tween-80 100 % of control and 110 % of control | [15] 93 % of control and 102 % of control | [16] 97 % of control | [17] 92 % of control | dose: 200.0 mg/kg/injection, schedule: Q01DX009 (ip), vehicle: saline with Tween-80 109 % of control and 120 % of control | [18] 93 % of control and 98 % of control | [19] 95 % of control | dose: 400.0 mg/kg/injection, schedule: Q01DX001 (ip), vehicle: saline with Tween-80 101 % of control | dose: 400.0 mg/kg/injection, schedule: Q01DX009 (ip), vehicle: saline with Tween-80 105 % of control and 89 % of control | [20] 95 % of control and 102 % of control | [21] 103 % of control

CN1CCCCC1CCN1c2ccccc2Sc2ccc(S(C)=O)cc21 (stereo not drawn)
inactive: dose: 6.25 mg/kg/injection, schedule: Q01DX009 (ip), vehicle: saline 97 % of control | dose: 12.5 mg/kg/injection, schedule: Q01DX009 (ip), vehicle: saline 98 % of control and 101 % of control and 108 % of control | dose: 25.0 mg/kg/injection, schedule: Q01DX009 (ip), vehicle: saline 100 % of control and 101 % of control (2×) | dose: 25.0 mg/kg/injection, schedule: Q04DX003 (ip), vehicle: saline 112 % of control | dose: 50.0 mg/kg/injection, schedule: Q01DX009 (ip), vehicle: saline 119 % of control | dose: 50.0 mg/kg/injection, schedule: Q04DX003 (ip), vehicle: saline 115 % of control | [16] 105 % of control

CC(=O)Nc1cc2ccccc2[n+](C)c1
inactive: dose: 12.5 mg/kg/injection, schedule: Q04DX003 (ip), vehicle: Klucel (hydroxypropylcellulose) (HPC) 94 % of control | [22] 98 % of control | [23] 96 % of control

Nc1nc(N)c2nc3c(nc2n1)CN(c1ccc(C(=O)O)cc1)C3=O
inactive: [7] 104 % of control | [8] 89 % of control

Cc1ccc([P+](Cc2ccccc2)(c2ccccc2)c2cccc3ccccc23)cc1 (stereo not drawn)
inactive: dose: 15.0 mg/kg/injection, schedule: Q01DX001 (ip), vehicle: carboxymethylcellulose (CMC) 94 % of control | dose: 30.0 mg/kg/injection, schedule: Q01DX001 (ip), vehicle: carboxymethylcellulose (CMC) 93 % of control

CCOCCOCCOC(C)Oc1cc(OC)ccc1OC (stereo not drawn)
inactive: dose: 100.0 mg/kg/injection, schedule: Q04DX002 (ip), vehicle: saline 107 % of control | dose: 200.0 mg/kg/injection, schedule: Q04DX002 (ip), vehicle: saline 93 % of control | dose: 400.0 mg/kg/injection, schedule: Q04DX002 (ip), vehicle: saline 101 % of control

O=C(O)CCN(c1ccccc1)S(=O)(=O)c1ccccc1
inactive: [11] 94 % of control | [12] 94 % of control | [13] 94 % of control

CSCC1OC(n2cnc3c(N)nc(Cl)nc32)C(O)C1O (stereo not drawn)
inactive: dose: 3.12 mg/kg/injection, schedule: Q01DX009 (ip), vehicle: saline with Tween-80 97 % of control | dose: 6.25 mg/kg/injection, schedule: Q01DX009 (ip), vehicle: saline with Tween-80 102 % of control | dose: 12.5 mg/kg/injection, schedule: Q01DX009 (ip), vehicle: saline with Tween-80 107 % of control | dose: 25.0 mg/kg/injection, schedule: Q01DX009 (ip), vehicle: saline with Tween-80 91 % of control | dose: 25.0 mg/kg/injection, schedule: Q04DX003 (ip), vehicle: saline with Tween-80 97 % of control | [24] 101 % of control | [14] 95 % of control | [25] 108 % of control

Cc1cnc2cc(Cl)ccc2n1
inactive: dose: 50.0 mg/kg/injection, schedule: Q01DX009 (ip), vehicle: Klucel (hydroxypropylcellulose) (HPC) 94 % of control | [1] 93 % of control | [2] 102 % of control | [3] 107 % of control | [4] 96 % of control

O=[N+]([O-])c1cc(Cl)cc2c1-c1c(Cl)cc(Cl)cc1C2Br (stereo not drawn)
inactive: [1] 101 % of control | [2] 98 % of control | [3] 104 % of control | [4] 96 % of control | [5] 103 % of control | [6] 93 % of control

O=C(O)c1cc2c3c(c1)CCCN3CCC2
inactive: [24] 100 % of control | [25] 100 % of control | dose: 200.0 mg/kg/injection, schedule: Q04DX003 (ip), vehicle: saline with Tween-80 102 % of control | dose: 400.0 mg/kg/injection, schedule: Q04DX003 (ip), vehicle: saline with Tween-80 91 % of control

CN(C)NC(=O)/C=C\C(=O)O
inactive: [15] 93 % of control | [18] 100 % of control | [20] 93 % of control

Cc1ccc(S(=O)(=O)OCCN(CCOS(=O)(=O)c2ccc(C)cc2)c2cc(OCc3ccccc3)cc(OCc3ccccc3)c2)cc1
inactive: dose: 25.0 mg/kg/injection, schedule: Q01DX009 (ip), vehicle: water 100 % of control | dose: 50.0 mg/kg/injection, schedule: Q01DX009 (ip), vehicle: water 121 % of control | dose: 100.0 mg/kg/injection, schedule: Q01DX009 (ip), vehicle: water 89 % of control | dose: 400.0 mg/kg/injection, schedule: Q01DX009 (ip), vehicle: water 95 % of control

Cc1ccccc1N=Nc1c(O)n(-c2ccccc2)c(=S)n(-c2ccccc2)c1=O
inactive: dose: 37.5 mg/kg/injection, schedule: Q01DX001 (ip), vehicle: saline with Tween-80 99 % of control | dose: 75.0 mg/kg/injection, schedule: Q01DX001 (ip), vehicle: saline with Tween-80 90 % of control | dose: 150.0 mg/kg/injection, schedule: Q01DX001 (ip), vehicle: saline with Tween-80 99 % of control

Nc1nc(N)c(N)c(=O)[nH]1
inactive: [22] 103 % of control | [23] 100 % of control | [7] 109 % of control | [2] 94 % of control and 100 % of control | [16] 107 % of control | [8] 101 % of control | [19] 105 % of control | [9] 101 % of control | [21] 104 % of control

CS(=O)(=O)CC1OC(n2nnc3c(N)ncnc32)C(O)C1O (stereo not drawn)
inactive: dose: 50.0 mg/kg/injection, schedule: Q01DX001 (ip), vehicle: saline with Tween-80 94 % of control | [14] 102 % of control | [17] 94 % of control

Cc1cccc(Cl)c1NC(=O)Nc1ccc(S(N)(=O)=O)cc1
inactive: [1] 94 % of control | [3] 102 % of control | [5] 92 % of control
